Measured values as given in ChEMBL document CHEMBL1201862, “PubChem BioAssay data set” (2004).
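Interpolation was linear, between the two tested concentrations surrounding the appropriate level; five concentrations were tested over 48 hours in 96-well plates. GI50 = concentration required for 50% inhibition of growth.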 The source made the active and inactive calls. Rule as the data show it: active = GI50 up to about 1.1 µM and inactive = higher. Non-standard residues stand in square brackets, D forms with d. Residues, ends and D or L forms follow the SMILES beside them. ξ: configuration not given here. *: point of attachment. ξHyp = O=C(O)C1CC(O)CN1; Cbz = O=C(OCc1ccccc1)*

Columns and labels:
Experiment in all cases: NCI-60 cell line screen, 48 h
Hs-578T = system: Hs-578T
SK-MEL-5 = system: SK-MEL-5
MCF7 = system: MCF7
HOP-62 = system: HOP-62
SK-OV-3 = system: SK-OV-3
SF-295 = system: SF-295
MDA-N = system: MDA-N
A498 = system: A498
NCI-H23 = system: NCI-H23
MOLT-4 = system: MOLT-4
T47D = system: T47D
M14 = system: M14
TK-10 = system: TK-10
SNB-19 = system: SNB-19
UACC-62 = system: UACC-62
HOP-92 = system: HOP-92
HCC 2998 = system: HCC 2998
K562 = system: K562
HCT-116 = system: HCT-116
HL-60 = system: HL-60

SMILES	GI50 (Hs-578T)	GI50 (SK-MEL-5)	GI50 (MCF7)	GI50 (HOP-62)	GI50 (SK-OV-3)	GI50 (SF-295)	GI50 (MDA-N)	GI50 (A498)	GI50 (NCI-H23)	GI50 (MOLT-4)	GI50 (T47D)	GI50 (M14)	GI50 (TK-10)	GI50 (SNB-19)	GI50 (UACC-62)	GI50 (HOP-92)	GI50 (HCC 2998)	GI50 (K562)	GI50 (HCT-116)	GI50 (HL-60)
Cc1ccc2c(c1)c1ccc3c(c1n2C)C(=O)C=CC3=O	3.08 µM (inactive)	4.56 µM (inactive)	1.8 µM (inactive)	> 10 µM (inactive)	> 10 µM (inactive)	> 10 µM (inactive)	1.73 µM (inactive)	2.88 µM (inactive)	2.62 µM (inactive)	0.76 µM (active)	1.63 µM (inactive)	2.05 µM (inactive)	2 µM (inactive)	> 10 µM (inactive)	3.01 µM (inactive)	2.03 µM (inactive)	9.77 µM (inactive)	0.468 µM (active)	1.51 µM (inactive)	0.75 µM (active)
CC(C)OC(=O)NNc1c(Cl)cc(Cl)cc1Cl	58.2 µM (inactive)	22.5 µM (inactive)	40.3 µM (inactive)	> 100 µM (inactive)	> 100 µM (inactive)	77.6 µM (inactive)	55 µM (inactive)	30.5 µM (inactive)	> 100 µM (inactive)	58.7 µM (inactive)	33.7 µM (inactive)	51.5 µM (inactive)	37.7 µM (inactive)	> 100 µM (inactive)	56.9 µM (inactive)	23.2 µM (inactive)	89.9 µM (inactive)	55.6 µM (inactive)	80.9 µM (inactive)	68.9 µM (inactive)
COc1ccc(-c2cn3c(nc4ccccc43)c(C)n2)cc1	41.6 µM (inactive)	21.5 µM (inactive)	12.2 µM (inactive)	31.8 µM (inactive)	10.2 µM (inactive)	55 µM (inactive)	> 100 µM (inactive)	> 76.4 µM (inactive)	50.4 µM (inactive)	> 100 µM (inactive)	8.3 µM (inactive)	> 100 µM (inactive)	58.9 µM (inactive)	44.9 µM (inactive)	35.3 µM (inactive)	21.7 µM (inactive)	> 100 µM (inactive)	> 100 µM (inactive)	85.1 µM (inactive)	> 56.1 µM (inactive)
C=C1CC2CC(=O)C(O)C(C1)C2 (centres undefined)	> 100 µM (inactive)	> 100 µM (inactive)	> 100 µM (inactive)	> 100 µM (inactive)	> 100 µM (inactive)	> 100 µM (inactive)	> 100 µM (inactive)	> 100 µM (inactive)	90.8 µM (inactive)	> 100 µM (inactive)	69 µM (inactive)	> 100 µM (inactive)	> 100 µM (inactive)	–	> 100 µM (inactive)	> 100 µM (inactive)	> 100 µM (inactive)	> 100 µM (inactive)	> 100 µM (inactive)	> 100 µM (inactive)
Cc1cc(C)c(S(=O)(=O)N(CCCN)OCCON(CCCN)S(=O)(=O)c2c(C)cc(C)cc2C)c(C)c1	2.67 µM (inactive)	8.2 µM (inactive)	2.59 µM (inactive)	3.01 µM (inactive)	5.01 µM (inactive)	20.2 µM (inactive)	2.74 µM (inactive)	19.5 µM (inactive)	2.59 µM (inactive)	2.64 µM (inactive)	4.92 µM (inactive)	2.75 µM (inactive)	8 µM (inactive)	2.08 µM (inactive)	4.19 µM (inactive)	6.24 µM (inactive)	1.9 µM (inactive)	2.96 µM (inactive)	2.24 µM (inactive)	–
O=c1c2c3c(sc2nc(S)n1-c1ccccc1)CCCc1ccc([N+](=O)[O-])cc1-3	87.3 µM (inactive)	25.7 µM (inactive)	36.6 µM (inactive)	35.1 µM (inactive)	> 100 µM (inactive)	30.4 µM (inactive)	86.5 µM (inactive)	41 µM (inactive)	30.5 µM (inactive)	21.3 µM (inactive)	17.5 µM (inactive)	> 100 µM (inactive)	> 100 µM (inactive)	40.8 µM (inactive)	26.7 µM (inactive)	20.6 µM (inactive)	24.6 µM (inactive)	11.7 µM (inactive)	39.1 µM (inactive)	17.6 µM (inactive)
O/N=C\c1c(O)ccc2ccccc12	> 100 µM (inactive)	46.7 µM (inactive)	37.8 µM (inactive)	70.1 µM (inactive)	36.9 µM (inactive)	41.7 µM (inactive)	66.5 µM (inactive)	56.2 µM (inactive)	83.6 µM (inactive)	–	27.8 µM (inactive)	68.2 µM (inactive)	40.4 µM (inactive)	> 100 µM (inactive)	41 µM (inactive)	73.8 µM (inactive)	31.7 µM (inactive)	46.8 µM (inactive)	38.9 µM (inactive)	14.7 µM (inactive)
C[C@@]1(O)C2C3CC4C5C3C1[C@](O)(C42)[C@H]5Br (some centres undefined)	> 100 µM (inactive)	> 100 µM (inactive)	> 100 µM (inactive)	> 100 µM (inactive)	–	> 100 µM (inactive)	> 100 µM (inactive)	> 100 µM (inactive)	> 100 µM (inactive)	> 100 µM (inactive)	> 100 µM (inactive)	> 100 µM (inactive)	> 100 µM (inactive)	> 100 µM (inactive)	> 100 µM (inactive)	> 100 µM (inactive)	> 100 µM (inactive)	> 100 µM (inactive)	> 100 µM (inactive)	> 100 µM (inactive)
NC(=O)CNC(=O)C1CC(O)CN1C(=O)OCc1ccccc1 (centres undefined) (Cbz-[ξHyp]-Gly-NH2)	> 100 µM (inactive)	> 100 µM (inactive)	> 100 µM (inactive)	> 100 µM (inactive)	> 100 µM (inactive)	> 100 µM (inactive)	> 100 µM (inactive)	> 100 µM (inactive)	> 100 µM (inactive)	> 100 µM (inactive)	> 100 µM (inactive)	> 100 µM (inactive)	> 100 µM (inactive)	> 100 µM (inactive)	> 100 µM (inactive)	–	> 100 µM (inactive)	> 100 µM (inactive)	> 100 µM (inactive)	> 100 µM (inactive)
O=C(O)C(Br)C(Br)c1ccccc1[N+](=O)[O-] (centres undefined)	> 100 µM (inactive)	> 100 µM (inactive)	> 100 µM (inactive)	96.2 µM (inactive)	> 100 µM (inactive)	> 100 µM (inactive)	> 100 µM (inactive)	> 100 µM (inactive)	> 100 µM (inactive)	–	> 100 µM (inactive)	> 100 µM (inactive)	> 100 µM (inactive)	> 100 µM (inactive)	> 100 µM (inactive)	> 100 µM (inactive)	> 100 µM (inactive)	> 100 µM (inactive)	> 100 µM (inactive)	–
CCOC(=O)C(NC(=O)OCc1ccccc1)C(=O)O (centres undefined)	> 100 µM (inactive)	> 100 µM (inactive)	> 100 µM (inactive)	> 100 µM (inactive)	–	> 100 µM (inactive)	> 100 µM (inactive)	> 100 µM (inactive)	> 100 µM (inactive)	> 100 µM (inactive)	> 100 µM (inactive)	> 100 µM (inactive)	> 100 µM (inactive)	> 100 µM (inactive)	> 100 µM (inactive)	> 100 µM (inactive)	> 100 µM (inactive)	> 100 µM (inactive)	> 100 µM (inactive)	> 100 µM (inactive)
COc1ccc(NC(=O)/C(=N/NC(N)=S)C2C(=O)NC(=S)NC2=O)c(OC)c1	> 100 µM (inactive)	> 100 µM (inactive)	> 100 µM (inactive)	–	> 100 µM (inactive)	> 100 µM (inactive)	> 100 µM (inactive)	> 100 µM (inactive)	> 100 µM (inactive)	> 100 µM (inactive)	> 100 µM (inactive)	> 100 µM (inactive)	> 100 µM (inactive)	> 100 µM (inactive)	> 100 µM (inactive)	> 100 µM (inactive)	> 100 µM (inactive)	> 100 µM (inactive)	> 100 µM (inactive)	> 100 µM (inactive)
O=C1N/C(=N/N=C\c2ccccc2)N/C1=C/c1ccccc1	27.3 µM (inactive)	35.4 µM (inactive)	31.5 µM (inactive)	19.5 µM (inactive)	37.7 µM (inactive)	38.9 µM (inactive)	30.6 µM (inactive)	30.9 µM (inactive)	21.7 µM (inactive)	14.4 µM (inactive)	30.3 µM (inactive)	45.4 µM (inactive)	38.5 µM (inactive)	21.6 µM (inactive)	–	22.2 µM (inactive)	13.9 µM (inactive)	21.3 µM (inactive)	34.6 µM (inactive)	34 µM (inactive)
COC1CC(N)(c2ccccc2)C(O)C(C)O1 (centres undefined)	> 100 µM (inactive)	> 100 µM (inactive)	> 100 µM (inactive)	> 100 µM (inactive)	> 100 µM (inactive)	> 100 µM (inactive)	> 100 µM (inactive)	> 100 µM (inactive)	> 100 µM (inactive)	> 100 µM (inactive)	> 100 µM (inactive)	> 100 µM (inactive)	–	> 100 µM (inactive)	> 100 µM (inactive)	> 100 µM (inactive)	> 100 µM (inactive)	> 100 µM (inactive)	> 100 µM (inactive)	> 100 µM (inactive)
